What all share (assay): cell-based
Holding throughout (design): functional GPCR antagonist screen (Eurofins Cerep), percent inhibition of control agonist response
Holding throughout (settings): antagonist effect, against control agonist; read-out: % Inhibition of Control Agonist Response, Mean

The target in assay [1] is T1, NK1 (h) (Homo sapiens, UniProt P25103).
T1 construct: gene TACR1

Assay [2] concerns the target T2, MT1 (ML1A) (h) (Homo sapiens, UniProt P48039).
T2 construct: gene MTNR1A

For assay [3], the target named is T3, LPA3 (h) (Homo sapiens, UniProt Q9UBY5).
T3 construct: gene LPAR3
T3 sequence (Q9UBY5 whole entry): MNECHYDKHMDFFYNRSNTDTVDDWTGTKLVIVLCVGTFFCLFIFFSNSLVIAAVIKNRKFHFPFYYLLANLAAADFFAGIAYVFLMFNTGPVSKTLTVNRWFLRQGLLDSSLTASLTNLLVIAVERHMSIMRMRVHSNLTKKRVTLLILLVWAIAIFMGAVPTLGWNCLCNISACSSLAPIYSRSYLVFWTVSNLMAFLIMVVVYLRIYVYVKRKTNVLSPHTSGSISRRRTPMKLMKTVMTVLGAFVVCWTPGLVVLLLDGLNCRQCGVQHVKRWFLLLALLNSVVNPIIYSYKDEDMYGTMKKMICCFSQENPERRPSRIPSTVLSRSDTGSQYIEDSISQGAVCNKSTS

The target of assay [4] is T4, NTS2 (NT2) (h) (Homo sapiens, UniProt O95665).
T4 construct: gene NTSR2

Assay [5] deals with T5, S1P1 (h) (Homo sapiens, UniProt P21453).
T5 construct: gene S1PR1
T5 sequence (P21453 whole entry): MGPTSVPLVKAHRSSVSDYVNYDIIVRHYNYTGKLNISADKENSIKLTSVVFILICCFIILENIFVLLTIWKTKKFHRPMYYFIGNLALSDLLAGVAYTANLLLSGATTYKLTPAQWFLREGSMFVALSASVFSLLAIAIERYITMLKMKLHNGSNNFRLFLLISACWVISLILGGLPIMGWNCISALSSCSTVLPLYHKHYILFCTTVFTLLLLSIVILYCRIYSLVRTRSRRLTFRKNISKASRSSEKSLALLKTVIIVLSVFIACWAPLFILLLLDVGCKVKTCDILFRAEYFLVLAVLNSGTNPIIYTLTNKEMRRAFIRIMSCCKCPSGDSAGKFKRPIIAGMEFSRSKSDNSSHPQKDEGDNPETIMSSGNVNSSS

Assay [6] concerns the target T6, NTS1 (NT1) (h) (Homo sapiens, UniProt P30989).
T6 construct: gene NTSR1

Assay [7] concerns the target T7, NPS (h) (Homo sapiens, UniProt Q6W5P4).
T7 construct: gene NPSR1

For assay [8], the target named is T8, EP4 (h) (Homo sapiens, UniProt P35408).
T8 construct: gene PTGER4
T8 sequence (P35408 whole entry): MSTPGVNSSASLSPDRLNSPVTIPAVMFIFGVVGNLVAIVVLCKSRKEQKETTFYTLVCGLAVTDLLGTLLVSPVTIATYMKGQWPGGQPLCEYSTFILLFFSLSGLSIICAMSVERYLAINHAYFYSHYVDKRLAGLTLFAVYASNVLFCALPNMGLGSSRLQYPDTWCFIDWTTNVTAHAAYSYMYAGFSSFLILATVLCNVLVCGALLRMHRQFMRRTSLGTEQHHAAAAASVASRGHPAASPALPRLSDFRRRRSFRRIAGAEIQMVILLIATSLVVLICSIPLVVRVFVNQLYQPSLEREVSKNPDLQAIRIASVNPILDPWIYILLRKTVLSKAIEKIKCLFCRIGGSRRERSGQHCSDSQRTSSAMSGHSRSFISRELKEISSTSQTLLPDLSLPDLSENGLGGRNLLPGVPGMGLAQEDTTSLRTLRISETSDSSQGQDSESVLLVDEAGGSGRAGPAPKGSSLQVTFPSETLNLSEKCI

Assay [9] addresses T9, MC3 (h) (Homo sapiens, UniProt P41968).
T9 construct: gene MC3R

For assay [10], the target named is T10, DP1 (h) (Homo sapiens, UniProt Q13258).
T10 construct: gene PTGDR

The target in assay [11] is T11, MC4 (h) (Homo sapiens, UniProt P32245).
T11 construct: gene MC4R
T11 sequence (P32245 whole entry): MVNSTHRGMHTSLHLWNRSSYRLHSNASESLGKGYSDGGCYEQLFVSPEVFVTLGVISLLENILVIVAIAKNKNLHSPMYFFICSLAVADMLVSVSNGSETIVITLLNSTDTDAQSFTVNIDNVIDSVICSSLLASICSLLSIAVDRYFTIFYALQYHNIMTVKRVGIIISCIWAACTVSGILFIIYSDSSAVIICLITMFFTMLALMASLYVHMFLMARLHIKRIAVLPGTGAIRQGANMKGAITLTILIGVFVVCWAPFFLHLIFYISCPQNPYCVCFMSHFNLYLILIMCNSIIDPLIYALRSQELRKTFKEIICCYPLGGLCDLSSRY

Assay [12] has as its target T12, OX2 (h) (Homo sapiens, UniProt O43614).
T12 construct: gene HCRTR2

Assay [13] concerns the target T13, M5 (h) (Homo sapiens, UniProt P08912).
T13 construct: gene CHRM5

The target of assay [14] is T14, PAF (h) (Homo sapiens, UniProt P25105).
T14 construct: gene PTAFR
T14 sequence (P25105 whole entry): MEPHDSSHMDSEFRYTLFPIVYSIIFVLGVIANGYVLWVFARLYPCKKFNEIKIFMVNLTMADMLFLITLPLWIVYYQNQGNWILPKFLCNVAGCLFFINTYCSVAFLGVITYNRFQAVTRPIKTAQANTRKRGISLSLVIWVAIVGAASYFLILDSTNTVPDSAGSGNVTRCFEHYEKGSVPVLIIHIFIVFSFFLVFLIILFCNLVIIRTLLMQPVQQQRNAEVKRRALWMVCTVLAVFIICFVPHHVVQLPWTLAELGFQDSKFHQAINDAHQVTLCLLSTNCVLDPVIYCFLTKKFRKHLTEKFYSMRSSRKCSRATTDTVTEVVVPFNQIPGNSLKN

Assay [15] has as its target T15, LPA1(h) (Homo sapiens, UniProt Q92633).
T15 construct: gene LPAR1

Assay [16] concerns the target T16, M3 (h) (Homo sapiens, UniProt P20309).
T16 construct: gene CHRM3

Assay [17] has as its target T17, P2Y1 (h) (Homo sapiens, UniProt P47900).
T17 construct: gene P2RY1

Assay [18] concerns the target T18, δ (DOP) (h) (Homo sapiens, UniProt P41143).
T18 construct: gene OPRD1

Assay [19] has as its target T19, PK2 (h) (Homo sapiens, UniProt Q8NFJ6).
T19 construct: gene PROKR2

For assay [20], the target named is T20, IP (PGI2) (h) (Homo sapiens, UniProt P43119).
T20 construct: gene PTGIR
T20 sequence (P43119 whole entry): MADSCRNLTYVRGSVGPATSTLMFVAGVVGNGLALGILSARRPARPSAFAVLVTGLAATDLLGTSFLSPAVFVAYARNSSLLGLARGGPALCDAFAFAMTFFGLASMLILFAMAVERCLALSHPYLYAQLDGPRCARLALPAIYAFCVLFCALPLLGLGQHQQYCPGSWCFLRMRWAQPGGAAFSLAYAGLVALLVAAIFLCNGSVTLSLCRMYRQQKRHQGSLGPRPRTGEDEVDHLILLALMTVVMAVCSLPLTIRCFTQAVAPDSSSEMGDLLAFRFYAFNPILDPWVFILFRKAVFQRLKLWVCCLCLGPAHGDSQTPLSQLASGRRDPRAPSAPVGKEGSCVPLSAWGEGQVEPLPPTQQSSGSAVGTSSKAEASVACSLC

Assay [21] has as its target T21, EP2 (h) (Homo sapiens, UniProt P43116).
T21 construct: gene PTGER2

Assay [22] addresses T22, motilin (h) (Homo sapiens, UniProt O43193).
T22 construct: gene MLNR

The target in assay [23] is T23, TP (TXA2/PGH2) (h) (Homo sapiens, UniProt P21731).
T23 construct: gene TBXA2R

For assay [24], the target named is T24, MRGX2 / MGRPLX2 (h) (Homo sapiens, UniProt Q96LB1).
T24 construct: gene MRGPRX2
T24 sequence (Q96LB1 whole entry): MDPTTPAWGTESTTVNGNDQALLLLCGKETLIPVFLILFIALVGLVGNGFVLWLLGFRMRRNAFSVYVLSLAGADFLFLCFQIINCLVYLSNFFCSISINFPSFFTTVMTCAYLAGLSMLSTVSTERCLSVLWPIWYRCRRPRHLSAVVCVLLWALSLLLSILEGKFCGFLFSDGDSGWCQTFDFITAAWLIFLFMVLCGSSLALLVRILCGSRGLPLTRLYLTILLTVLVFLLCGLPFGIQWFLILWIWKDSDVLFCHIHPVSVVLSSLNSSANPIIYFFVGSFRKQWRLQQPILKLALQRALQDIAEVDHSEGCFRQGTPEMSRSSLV

T13 sequence (P08912 whole entry): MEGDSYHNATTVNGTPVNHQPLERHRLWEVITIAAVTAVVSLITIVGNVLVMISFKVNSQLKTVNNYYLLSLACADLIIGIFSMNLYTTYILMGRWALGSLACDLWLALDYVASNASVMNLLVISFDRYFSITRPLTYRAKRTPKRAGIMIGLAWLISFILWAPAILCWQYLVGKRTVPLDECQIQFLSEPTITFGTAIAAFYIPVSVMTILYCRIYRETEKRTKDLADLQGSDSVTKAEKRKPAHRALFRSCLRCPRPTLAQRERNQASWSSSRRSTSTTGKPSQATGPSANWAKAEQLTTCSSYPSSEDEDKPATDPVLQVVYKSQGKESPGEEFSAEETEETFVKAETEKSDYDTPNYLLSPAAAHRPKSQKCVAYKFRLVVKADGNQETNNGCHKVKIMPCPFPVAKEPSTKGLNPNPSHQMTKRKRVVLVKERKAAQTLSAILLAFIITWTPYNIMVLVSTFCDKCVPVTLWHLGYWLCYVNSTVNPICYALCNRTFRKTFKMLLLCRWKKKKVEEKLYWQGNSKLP
T1 sequence (P25103 whole entry): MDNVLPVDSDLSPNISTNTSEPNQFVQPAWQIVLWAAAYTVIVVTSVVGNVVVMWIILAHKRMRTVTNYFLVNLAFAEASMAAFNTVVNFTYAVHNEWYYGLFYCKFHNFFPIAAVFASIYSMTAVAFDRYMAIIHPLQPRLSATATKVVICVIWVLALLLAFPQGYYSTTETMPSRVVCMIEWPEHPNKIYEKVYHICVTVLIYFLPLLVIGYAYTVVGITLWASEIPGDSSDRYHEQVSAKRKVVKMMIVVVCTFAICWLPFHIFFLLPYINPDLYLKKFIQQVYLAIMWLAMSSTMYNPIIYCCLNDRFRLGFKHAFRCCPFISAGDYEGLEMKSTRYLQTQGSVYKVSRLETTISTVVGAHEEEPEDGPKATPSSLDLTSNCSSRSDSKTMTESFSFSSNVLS
T21 sequence (P43116 whole entry): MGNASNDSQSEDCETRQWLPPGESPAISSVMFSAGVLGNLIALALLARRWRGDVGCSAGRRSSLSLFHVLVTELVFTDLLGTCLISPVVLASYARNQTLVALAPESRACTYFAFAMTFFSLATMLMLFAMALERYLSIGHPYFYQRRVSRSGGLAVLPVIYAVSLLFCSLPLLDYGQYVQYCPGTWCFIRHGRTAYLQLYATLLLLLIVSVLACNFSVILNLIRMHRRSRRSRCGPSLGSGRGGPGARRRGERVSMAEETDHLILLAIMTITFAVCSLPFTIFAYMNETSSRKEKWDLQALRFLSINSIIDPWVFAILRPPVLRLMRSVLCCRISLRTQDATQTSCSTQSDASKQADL
T16 sequence (P20309 whole entry): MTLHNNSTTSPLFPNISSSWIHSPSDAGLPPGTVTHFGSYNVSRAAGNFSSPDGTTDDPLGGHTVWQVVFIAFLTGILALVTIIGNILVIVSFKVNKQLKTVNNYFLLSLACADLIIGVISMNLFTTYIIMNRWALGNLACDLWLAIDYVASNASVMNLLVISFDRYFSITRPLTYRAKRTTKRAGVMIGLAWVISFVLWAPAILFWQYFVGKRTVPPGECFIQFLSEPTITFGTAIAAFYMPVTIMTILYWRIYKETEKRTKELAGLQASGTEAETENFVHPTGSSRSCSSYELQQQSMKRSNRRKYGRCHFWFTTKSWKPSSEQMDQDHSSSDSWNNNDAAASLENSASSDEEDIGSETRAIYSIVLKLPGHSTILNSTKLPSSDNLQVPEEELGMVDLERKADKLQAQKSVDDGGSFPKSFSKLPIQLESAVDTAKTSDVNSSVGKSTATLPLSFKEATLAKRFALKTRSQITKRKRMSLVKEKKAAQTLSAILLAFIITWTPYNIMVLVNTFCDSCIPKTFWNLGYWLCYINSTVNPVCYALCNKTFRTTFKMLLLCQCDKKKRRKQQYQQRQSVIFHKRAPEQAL
T12 sequence (O43614 whole entry): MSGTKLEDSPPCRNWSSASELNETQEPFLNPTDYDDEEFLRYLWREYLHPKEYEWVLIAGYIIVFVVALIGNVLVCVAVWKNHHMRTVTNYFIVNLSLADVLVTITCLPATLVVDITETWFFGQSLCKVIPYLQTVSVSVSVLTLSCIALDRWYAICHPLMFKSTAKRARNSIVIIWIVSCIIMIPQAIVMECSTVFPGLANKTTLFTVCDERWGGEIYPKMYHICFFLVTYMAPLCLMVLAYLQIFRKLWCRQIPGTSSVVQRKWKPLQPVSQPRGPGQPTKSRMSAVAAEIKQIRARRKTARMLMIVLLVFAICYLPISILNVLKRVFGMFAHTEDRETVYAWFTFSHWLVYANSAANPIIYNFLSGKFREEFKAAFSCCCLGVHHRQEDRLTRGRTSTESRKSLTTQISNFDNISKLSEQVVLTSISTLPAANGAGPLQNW

In the case of `[O-][S@@+](Cc1cncs1)C(c1ccccc1)c1ccccc1` [S-CE-123, (S)-5-((Benzhydrylsulfinyl)Methyl)Thiazole], the inhibition at 2.8 µM in assay [1] was -5.3%; in [2], 7.6%; in [3] it was -34.4%; in assay [4] it was 22.9%; in assay [5], 5.9%; in [6], -10%. The inhibition at 2.8 µM is -14.3% in assay [7]; -1.5% in assay [8]; -7.8% in assay [9]; -2.5% in assay [10]; 2.3% in assay [11]; 4.2% in assay [12]. Further, the inhibition at 2.8 µM is -5.9% in assay [13]; -39.1% in assay [14]; 4.4% in [15]; 0.8% in [16]; -6.7% in assay [17]; -2.8% in assay [18]. Moreover, the inhibition at 2.8 µM in assay [19] was 7.3%; in assay [20], 16.3%; in assay [21], 0.7%; in assay [22] it was -5.2%; in assay [23] it was 2.5%; in assay [24], 7.1%.

Usually inhibition stands for the relative decrease from the control value, in per cent.

The values above are taken from paper PMC10046369, “Low-Affinity/High-Selectivity Dopamine Transport Inhibition Sufficient to Rescue Cognitive Functions in the Aging Rat” (Biomolecules, 2023).
